Test results taken from PubChem BioAssay (NCI).
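GI50: concentration for 50% inhibition of growth. TGI marks complete inhibition of growth.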

Key:
Assay in all cases: NCI-60 cell line screen, 384-well format
BT-549 breast = system: BT-549 breast
EKVX NSCLC = system: EKVX NSCLC
OVCAR-3 ovarian = system: OVCAR-3 ovarian
A498 renal = system: A498 renal
NCI-H522 lung = system: NCI-H522 lung
MDA-MB-231 breast = system: MDA-MB-231 breast
HCT-15 colon = system: HCT-15 colon
OVCAR-8 ovarian = system: OVCAR-8 ovarian
KM12 colon = system: KM12 colon
NCI-H322M lung = system: NCI-H322M lung
SN12C renal = system: SN12C renal
SF-295 CNS = system: SF-295 CNS
RXF 393 renal = system: RXF 393 renal
MALME-3M melanoma = system: MALME-3M melanoma
MDA-MB-435 melanoma = system: MDA-MB-435 melanoma
MOLT-4 leukemia = system: MOLT-4 leukemia
NCI-H226 lung = system: NCI-H226 lung
LOX IMVI melanoma = system: LOX IMVI melanoma
DU-145 prostate = system: DU-145 prostate
HT29 colon = system: HT29 colon
COLO 205 colon = system: COLO 205 colon
OVCAR-4 ovarian = system: OVCAR-4 ovarian
HCC-2998 colon = system: HCC-2998 colon
PC-3 prostate = system: PC-3 prostate
CAKI-1 renal = system: CAKI-1 renal
HS 578T breast = system: HS 578T breast
SK-MEL-5 melanoma = system: SK-MEL-5 melanoma
A549 NSCLC = system: A549 NSCLC
RPMI-8226 leukemia = system: RPMI-8226 leukemia
786-0 renal = system: 786-0 renal
ACHN renal = system: ACHN renal
HOP-62 NSCLC = system: HOP-62 NSCLC
SK-OV-3 ovarian = system: SK-OV-3 ovarian
HCT-116 colon = system: HCT-116 colon
M14 melanoma = system: M14 melanoma
NCI-H460 NSCLC = system: NCI-H460 NSCLC
NCI-H23 lung = system: NCI-H23 lung
MDA-MB-468 breast = system: MDA-MB-468 breast
OVCAR-5 ovarian = system: OVCAR-5 ovarian
HOP-92 NSCLC = system: HOP-92 NSCLC
MCF7 breast = system: MCF7 breast
HL-60(TB) leukemia = system: HL-60(TB) leukemia
IGROV1 ovarian = system: IGROV1 ovarian
NCI/ADR-RES ovarian = system: NCI/ADR-RES ovarian

Cc1cn(-c2cc(NC(=O)c3ccc(C)c(Nc4nccc(-c5cccnc5)n4)c3)cc(C(F)(F)F)c2)cn1 was tested. Which GI50 (BT-549 breast) did it give?
Its GI50 is 1990 nM.

What about the TGI (BT-549 breast) of the same compound?
The TGI was 3430 nM.

And the GI50 (EKVX NSCLC)?
Its GI50 is 1880 nM.

And the TGI (EKVX NSCLC)?
The TGI was 3780 nM.

And the GI50 (OVCAR-3 ovarian)?
Its GI50 is 1730 nM.

And the TGI (OVCAR-3 ovarian)?
Its TGI is 3360 nM.

What about the GI50 (A498 renal) of the same compound?
The GI50 was 1980 nM.

What about the TGI (A498 renal) of the same compound?
The TGI was 3940 nM.

What about the GI50 (NCI-H522 lung) of the same compound?
Its GI50 is 1820 nM.

What about the TGI (NCI-H522 lung) of the same compound?
The TGI was 4480 nM.

What about the GI50 (MDA-MB-231 breast) of the same compound?
Its GI50 is 1300 nM.

And the TGI (MDA-MB-231 breast)?
Its TGI is 3650 nM.

What about the GI50 (HCT-15 colon) of the same compound?
The GI50 was 3600 nM.

What about the TGI (HCT-15 colon) of the same compound?
Its TGI is 14200 nM.

And the GI50 (OVCAR-8 ovarian)?
Its GI50 is 1590 nM.

And the TGI (OVCAR-8 ovarian)?
Its TGI is 3320 nM.

What about the GI50 (KM12 colon) of the same compound?
Its GI50 is 2500 nM.

And the TGI (KM12 colon)?
The TGI was 6870 nM.

What about the GI50 (NCI-H322M lung) of the same compound?
The GI50 was 2290 nM.

What about the TGI (NCI-H322M lung) of the same compound?
Its TGI is 4630 nM.

What about the GI50 (SN12C renal) of the same compound?
The GI50 was 3610 nM.

What about the TGI (SN12C renal) of the same compound?
Its TGI is greater than 100000 nM.

And the GI50 (SF-295 CNS)?
Its GI50 is 1740 nM.

What about the TGI (SF-295 CNS) of the same compound?
The TGI was 3390 nM.

What about the GI50 (RXF 393 renal) of the same compound?
The GI50 was 1470 nM.

What about the TGI (RXF 393 renal) of the same compound?
The TGI was 2840 nM.

And the GI50 (MALME-3M melanoma)?
The GI50 was 447 nM.

And the TGI (MALME-3M melanoma)?
The TGI was 1620 nM.

What about the GI50 (MDA-MB-435 melanoma) of the same compound?
The GI50 was 1720 nM.

And the TGI (MDA-MB-435 melanoma)?
Its TGI is 3490 nM.

What about the GI50 (MOLT-4 leukemia) of the same compound?
The GI50 was 1890 nM.

What about the TGI (MOLT-4 leukemia) of the same compound?
Its TGI is greater than 100000 nM.

What about the GI50 (NCI-H226 lung) of the same compound?
The GI50 was 1700 nM.

What about the TGI (NCI-H226 lung) of the same compound?
The TGI was 3680 nM.

And the GI50 (LOX IMVI melanoma)?
The GI50 was 2200 nM.

What about the TGI (LOX IMVI melanoma) of the same compound?
The TGI was 9930 nM.

And the GI50 (DU-145 prostate)?
Its GI50 is 2800 nM.

What about the TGI (DU-145 prostate) of the same compound?
The TGI was 7600 nM.

And the GI50 (HT29 colon)?
The GI50 was 1660 nM.

What about the TGI (HT29 colon) of the same compound?
Its TGI is 3780 nM.

What about the GI50 (COLO 205 colon) of the same compound?
The GI50 was 1280 nM.

What about the TGI (COLO 205 colon) of the same compound?
The TGI was 2980 nM.

What about the GI50 (OVCAR-4 ovarian) of the same compound?
The GI50 was 3160 nM.

What about the TGI (OVCAR-4 ovarian) of the same compound?
The TGI was 7250 nM.

And the GI50 (HCC-2998 colon)?
Its GI50 is 2240 nM.

And the TGI (HCC-2998 colon)?
Its TGI is 5360 nM.

What about the GI50 (PC-3 prostate) of the same compound?
Its GI50 is 1710 nM.

What about the TGI (PC-3 prostate) of the same compound?
The TGI was 3130 nM.

What about the GI50 (CAKI-1 renal) of the same compound?
Its GI50 is 3040 nM.

What about the TGI (CAKI-1 renal) of the same compound?
The TGI was 10800 nM.

What about the GI50 (HS 578T breast) of the same compound?
The GI50 was 1550 nM.

And the TGI (HS 578T breast)?
Its TGI is 2900 nM.

And the GI50 (SK-MEL-5 melanoma)?
The GI50 was 1280 nM.

And the TGI (SK-MEL-5 melanoma)?
The TGI was 2600 nM.

And the GI50 (A549 NSCLC)?
The GI50 was 1720 nM.

And the TGI (A549 NSCLC)?
The TGI was 3160 nM.

What about the GI50 (RPMI-8226 leukemia) of the same compound?
The GI50 was 1460 nM.

What about the TGI (RPMI-8226 leukemia) of the same compound?
The TGI was 5450 nM.

What about the GI50 (786-0 renal) of the same compound?
Its GI50 is 1640 nM.

What about the TGI (786-0 renal) of the same compound?
The TGI was 3030 nM.

And the GI50 (ACHN renal)?
Its GI50 is 1640 nM.

And the TGI (ACHN renal)?
The TGI was 3470 nM.

And the GI50 (HOP-62 NSCLC)?
Its GI50 is 2210 nM.

And the TGI (HOP-62 NSCLC)?
The TGI was 5730 nM.

And the GI50 (SK-OV-3 ovarian)?
Its GI50 is 1830 nM.

And the TGI (SK-OV-3 ovarian)?
Its TGI is 3300 nM.

And the GI50 (HCT-116 colon)?
Its GI50 is 1650 nM.

What about the TGI (HCT-116 colon) of the same compound?
The TGI was 3750 nM.

And the GI50 (M14 melanoma)?
The GI50 was 1190 nM.

And the TGI (M14 melanoma)?
The TGI was 2530 nM.

What about the GI50 (NCI-H460 NSCLC) of the same compound?
Its GI50 is 2670 nM.

What about the TGI (NCI-H460 NSCLC) of the same compound?
The TGI was 9420 nM.

What about the GI50 (NCI-H23 lung) of the same compound?
The GI50 was 2240 nM.

And the TGI (NCI-H23 lung)?
The TGI was 7480 nM.

What about the GI50 (MDA-MB-468 breast) of the same compound?
Its GI50 is 1770 nM.

And the TGI (MDA-MB-468 breast)?
Its TGI is 3310 nM.

And the GI50 (OVCAR-5 ovarian)?
Its GI50 is 1910 nM.

What about the TGI (OVCAR-5 ovarian) of the same compound?
The TGI was 5090 nM.

What about the GI50 (HOP-92 NSCLC) of the same compound?
The GI50 was 1660 nM.

What about the TGI (HOP-92 NSCLC) of the same compound?
The TGI was 3600 nM.

What about the GI50 (MCF7 breast) of the same compound?
Its GI50 is 1880 nM.

What about the TGI (MCF7 breast) of the same compound?
The TGI was 3670 nM.

What about the GI50 (HL-60(TB) leukemia) of the same compound?
Its GI50 is 1460 nM.

And the TGI (HL-60(TB) leukemia)?
Its TGI is 7920 nM.

What about the GI50 (IGROV1 ovarian) of the same compound?
The GI50 was 1870 nM.

What about the TGI (IGROV1 ovarian) of the same compound?
The TGI was 3610 nM.

What about the GI50 (NCI/ADR-RES ovarian) of the same compound?
The GI50 was 1580 nM.

What about the TGI (NCI/ADR-RES ovarian) of the same compound?
Its TGI is 3740 nM.
